Among the data in patent US8580790B2, “(Heterocycle/condensed piperidine)-(piperazinyl)-1-alkanone or (heterocycle/condensed pyrrolidine)-(piperazinyl)-1-alkanone derivatives and use thereof as p75 inhibitors” (Sanofi, priority 2009, dated 2013) are melting point values, retold here.

The compound `C[C@@H]1CN(CC(=O)N2CCc3nc(-c4ccccc4)sc3C2)[C@@H](C)CN1c1ccc(C#N)cn1` [compound 59, 6-{(2R,5S)-2,5-dimethyl-4-[2-oxo-2-(2-phenyl-6,7-dihydro-4H-thiazolo[5,4-c]pyridin-5-yl)ethyl]piperazin-1-yl}nicotinonitrile] yielded a melting point of 159 to 160 °C.
For `C[C@@H]1CN(CC(=O)N2CCc3nc(-c4ccccc4)sc3C2)[C@@H](C)CN1c1ccc(C(=O)O)cn1` [compound 63, 6-{(2R,5S)-2,5-dimethyl-4-[2-oxo-2-(2-phenyl-6,7-dihydro-4H-thiazolo[5,4-c]pyridin-5-yl)ethyl]piperazin-1-yl}nicotinic acid] the value was 220 to 221 °C.
The value for `O=C(CN1CCN(c2ccc(C(F)(F)F)cn2)C(=O)C1)N1CCc2nn(-c3ccc(C(F)(F)F)cn3)cc2C1` [compound 65, 4-{2-oxo-2-[2-(5-trifluoromethylpyridin-2-yl)-2,4,6,7-tetrahydropyrazolo[4,3-c]pyridin-5-yl]ethyl}-1-(5-trifluoromethylpyridin-2-yl)piperazin-2-one] was 200 to 201 °C; that for `C[C@@H]1CN(c2ncc(C(=O)O)cn2)C[C@H](C)N1CC(=O)N1CCc2nn(-c3ccccc3)cc2C1` [compound 75, 2-{(3S,5R)-3,5-dimethyl-4-[2-oxo-2-(2-phenyl-2,4,6,7-tetrahydropyrazolo[4,3-c]pyridin-5-yl)ethyl]piperazin-1-yl}pyrimidine-5-carboxylic acid] was 94 to 97 °C; that for `O=C(CN1CCN(c2ccc(C(F)(F)F)cn2)C(=O)C1)N1CCc2nc(-c3ccccc3)[nH]c2C1` [compound 78, 4-[2-oxo-2-(2-phenyl-3,4,6,7-tetrahydroimidazo[4,5-c]pyridin-5-yl)ethyl]-1-(5-trifluoromethylpyridin-2-yl)piperazin-2-one] was 198 to 200 °C.
For `O=C(CN1CCN(c2ccc(C(F)(F)F)cn2)C(=O)C1)N1CCc2sc(-c3ccccc3)nc2C1` [compound 82, 4-[2-oxo-2-(2-phenyl-6,7-dihydro-4H-thiazolo[4,5-c]pyridin-5-yl)ethyl]-1-(5-trifluoromethylpyridin-2-yl)piperazin-2-one] the value was 140 to 142 °C; for `O=C(CN1CCN(c2ccc(C(F)(F)F)cn2)C(=O)C1)N1CCc2oc(-c3ccccc3)nc2C1` [compound 83, 4-[2-oxo-2-(2-phenyl-6,7-dihydro-4H-oxazolo[4,5-c]pyridin-5-yl)ethyl]-1-(5-trifluoromethylpyridin-2-yl)piperazin-2-one], 140 to 142 °C.
Compound `O=C(CN1CCN(c2ccc(C(F)(F)F)cn2)C(=O)C1)N1CCc2nc(-c3cccnc3)sc2C1` [compound 84, 4-[2-oxo-2-(2-pyridin-3-yl-6,7-dihydro-4H-thiazolo[5,4-c]pyridin-5-yl)ethyl]-1-(5-trifluoromethylpyridin-2-yl)piperazin-2-one] had a melting point of 180 to 183 °C.
For `C[C@@H]1CN(c2ccc(-c3nnnn3C)cn2)C[C@H](C)N1CC(=O)N1CCc2nn(-c3ccccc3)cc2C1` [compound 86, 2-{(2S,6R)-2,6-dimethyl-4-[5-(1-methyl-1H-tetrazol-5-yl)pyridin-2-yl]piperazin-1-yl}-1-(2-phenyl-2,4,6,7-tetrahydropyrazolo[4,3-c]pyridin-5-yl)ethanone], the melting point lay within 198 to 199 °C.
Compound `C[C@@H]1CN(c2ccc(-c3nnn(C)n3)cn2)C[C@H](C)N1CC(=O)N1CCc2nn(-c3ccccc3)cc2C1` [compound 87, 2-{(2S,6R)-2,6-dimethyl-4-[5-(2-methyl-2H-tetrazol-5-yl)pyridin-2-yl]piperazin-1-yl}-1-(2-phenyl-2,4,6,7-tetrahydropyrazolo[4,3-c]pyridin-5-yl)ethanone] showed a melting point of 182 to 183 °C.
For `Cc1nc(-c2ccc(N3C[C@@H](C)N(CC(=O)N4CCc5nn(-c6ccccc6)cc5C4)[C@@H](C)C3)nc2)no1` [compound 89, 2-{(2S,6R)-2,6-dimethyl-4-[5-(5-methyl[1,2,4]oxadiazol-3-yl)-pyridin-2-yl]piperazin-1-yl}-1-(2-phenyl-2,4,6,7-tetrahydropyrazolo[4,3-c]pyridin-5-yl)ethanone] the value was 163 to 164 °C; for `C[C@@H]1CN(c2ccc(-c3nnco3)cn2)C[C@H](C)N1CC(=O)N1CCc2nn(-c3ccccc3)cc2C1` [compound 90, 2-[(2S,6R)-2,6-dimethyl-4-(5-[1,3,4]oxadiazol-2-ylpyridin-2-yl)piperazin-1-yl]-1-(2-phenyl-2,4,6,7-tetrahydropyrazolo[4,3-c]pyridin-5-yl)ethanone], 189 to 190 °C; for `Cc1noc(-c2ccc(N3C[C@@H](C)N(CC(=O)N4CCc5nn(-c6ccccc6)cc5C4)[C@@H](C)C3)nc2)n1` [compound 91, 2-{(2S,6R)-2,6-dimethyl-4-[5-(3-methyl-[1,2,4]oxadiazol-5-yl)-pyridin-2-yl]piperazin-1-yl}-1-(2-phenyl-2,4,6,7-tetrahydropyrazolo[4,3-c]pyridin-5-yl)ethanone], 168 to 171 °C.
For `COC(=O)c1ccc(N2C[C@@H](C)N(CC(=O)N3CCc4c(cnn4C(C)(C)C)C3)[C@@H](C)C2)nc1` [compound 92, 6-{(3S,5R)-4-[2-(1-tert-butyl-1,4,6,7-tetrahydropyrazolo[4,3-c]pyridin-5-yl)-2-oxoethyl]-3,5-dimethylpiperazin-1-yl}nicotinic acid methyl ester] the value was 134 to 135 °C; for `C[C@@H]1CN(c2ccc(C(=O)O)cn2)C[C@H](C)N1CC(=O)N1CCc2c(cnn2C(C)(C)C)C1` [compound 93, 6-{(3S,5R)-4-[2-(1-tert-butyl-1,4,6,7-tetrahydropyrazolo[4,3-c]pyridin-5-yl)-2-oxoethyl]-3,5-dimethylpiperazin-1-yl}nicotinic acid], 150 to 151 °C; for `O=C(CN1CCN(c2ccc(C(F)(F)F)cn2)C(=O)C1)N1CCc2nc(-c3ccccc3)oc2C1` [compound 96, 4-[2-oxo-2-(2-phenyl-6,7-dihydro-4H-oxazolo[5,4-c]pyridin-5-yl)ethyl]-1-(5-trifluoromethylpyridin-2-yl)piperazin-2-one], 175 °C.
The value for `C[C@@H]1CN(c2ccc(C(F)(F)F)cn2)C[C@H](C)N1CC(=O)N1CCc2cc(-c3ccccc3)oc2C1` [compound 97, 2-[(2S,6R)-2,6-dimethyl-4-(5-trifluoromethylpyridin-2-yl)piperazin-1-yl]-1-(2-phenyl-4,7-dihydro-5H-furano[2,3-c]pyridin-6-yl)ethanone] was 162 °C; that for `CC(C)OC(=O)c1ccc(N2C[C@@H](C)N(CC(=O)N3CCc4nn(-c5ccccc5)cc4C3)[C@@H](C)C2)nc1` [compound 98, 6-{(3S,5R)-3,5-dimethyl-4-[2-oxo-2-(2-phenyl-2,4,6,7-tetrahydropyrazolo[4,3-c]pyridin-5-yl)ethyl]piperazin-1-yl}nicotinic acid isopropyl ester] was 135 to 136 °C; that for `C[C@@H]1CN(c2ccc(C(F)(F)F)cn2)C[C@H](C)N1CC(=O)N1CCc2nn(-c3ccc(C(F)(F)F)cn3)cc2C1` [compound 103, 2-[(2S,6R)-2,6-dimethyl-4-(5-trifluoromethylpyridin-2-yl)piperazin-1-yl]-1-[2-(5-trifluoromethylpyridin-2-yl)-2,4,6,7-tetrahydropyrazolo[4,3-c]pyridin-5-yl]ethanone] was 190 to 191 °C.
Compound `C[C@@H]1CN(c2ccc(C(=O)O)cn2)C[C@H](C)N1CC(=O)N1CCc2nn(C(C)(C)C)cc2C1` [compound 105, 6-{(3S,5R)-4-[2-(2-tert-butyl-2,4,6,7-tetrahydropyrazolo[4,3-c]pyridin-5-yl)-2-oxoethyl]-3,5-dimethylpiperazin-1-yl}nicotinic acid] gave a melting point of 120 to 121 °C.
`O=C(CN1CC2CC1CN2c1ccc(C(F)(F)F)nn1)N1CCc2nn(-c3ccc(C(F)(F)F)cn3)cc2C1` (centres unmarked) [compound 107, 2-[5-(6-trifluoromethylpyridazin-3-yl)-2,5-diazabicyclo[2.2.1]hept-2-yl]-1-[2-(5-trifluoromethylpyridin-2-yl)-2,4,6,7-tetrahydropyrazolo[4,3-c]pyridin-5-yl]ethanone] gave a melting point of 140 to 141 °C.
Turning to `O=C(CN1CCN(c2cncc(Cl)n2)CC1)N1CCc2nn(-c3ccc(C(F)(F)F)cn3)cc2C1` [compound 108, 2-(6′-chloro-2,3,5,6-tetrahydro[1,2′]bipyrazinyl-4-yl)-1-[2-(5-trifluoromethylpyridin-2-yl)-2,4,6,7-tetrahydropyrazolo[4,3-c]pyridin-5-yl]ethanone], the melting point lay within 185 to 186 °C.
For `C[C@@H]1CN(c2ccc(C(F)(F)F)cn2)C[C@H](C)N1CC(=O)N1CCc2nc(-c3ccccc3)[nH]c2C1` [compound 110, 2-[(2S,6R)-2,6-dimethyl-4-(5-trifluoromethylpyridin-2-yl)piperazin-1-yl]-1-(2-phenyl-3,4,6,7-tetrahydroimidazo[4,5-c]pyridin-5-yl)ethanone] the value was 189 to 192 °C.
`C[C@@H]1CN(c2cnccn2)C[C@H](C)N1CC(=O)N1CCc2nn(-c3ccc(C(F)(F)F)cn3)cc2C1` [compound 111, 2-((3S,5R)-3,5-dimethyl-2,3,5,6-tetrahydro[1,2′]bipyrazinyl-4-yl)-1-[2-(5-trifluoromethylpyridin-2-yl)-2,4,6,7-tetrahydropyrazolo[4,3-c]pyridin-5-yl]ethanone]: the melting point is 150 to 151 °C.
For `C[C@@H]1CN(c2ccc(Cl)cn2)C[C@H](C)N1CC(=O)N1CCc2nn(-c3ccc(C(F)(F)F)cn3)cc2C1` [compound 112, 2-[(2S,6R)-4-(5-chloropyridin-2-yl)-2,6-dimethylpiperazin-1-yl]-1-[2-(5-trifluoromethylpyridin-2-yl)-2,4,6,7-tetrahydropyrazolo[4,3-c]pyridin-5-yl]ethanone], the melting point was 165 to 166 °C.
For `O=C(CN1CCN(c2ccnc3cc(Cl)ccc23)CC1)N1CCc2nn(-c3ccccc3)cc2C1` [compound 113, 2-[4-(7-chloroquinolin-4-yl)piperazin-1-yl]-1-(2-phenyl-2,4,6,7-tetrahydropyrazolo[4,3-c]pyridin-5-yl)ethanone] the value was 100 to 101 °C.
